Assay results as given in paper PMC7251097, “Aspartate/asparagine-β-hydroxylase: a high-throughput mass spectrometric assay for discovery of small molecule inhibitors” (Scientific Reports, 2020).
Counter-ions that a name gives are not always drawn. Like-named read-outs stand apart in the source and are kept apart here. Starred links: 1 amine or outer side, 2 acyl side, 3 side chain; linkers in the order of their positions; H or OH if unused. Non-standard residues stand in square brackets, D forms with d. Residues, ends and D or L forms follow the SMILES beside them. X1 = NCCCC[C@H](N)CN([C@@H](CCCCN)C(=O)[*:2])[*:1]; Tle = CC(C)(C)[C@H](N)C(=O)O

Biological target: T1, His6-AspH315–758 (human aspartate/asparagine-β-hydroxylase, AspH) (Homo sapiens, UniProt Q12797)
T1 construct: N-Terminally His6-tagged human AspH315–758 (His6-AspH315–758) was produced in E. coli BL21 (DE3) cells; made in house; host or cells: E. coli BL21 (DE3), pET-28a(+) vector
T1 sequence (Q12797 315-758): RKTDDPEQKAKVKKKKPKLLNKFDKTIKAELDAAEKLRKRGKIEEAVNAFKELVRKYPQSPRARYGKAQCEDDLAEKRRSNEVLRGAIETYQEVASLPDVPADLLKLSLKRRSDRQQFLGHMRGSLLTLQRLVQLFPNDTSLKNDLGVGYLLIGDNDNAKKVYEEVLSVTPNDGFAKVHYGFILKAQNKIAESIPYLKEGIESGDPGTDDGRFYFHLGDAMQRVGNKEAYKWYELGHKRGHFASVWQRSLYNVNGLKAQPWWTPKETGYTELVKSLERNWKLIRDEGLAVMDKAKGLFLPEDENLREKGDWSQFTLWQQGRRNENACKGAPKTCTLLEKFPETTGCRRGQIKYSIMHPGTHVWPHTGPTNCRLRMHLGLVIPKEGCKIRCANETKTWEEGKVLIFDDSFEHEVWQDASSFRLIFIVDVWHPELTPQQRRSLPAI
Experiment: SPE-MS AspH inhibition assay (LOPAC screen at fixed 20 μM and IC50 dose-response), hydroxylation of cyclic peptide hFX-CP101–119
Assay type: biochemical
Conditions: for Plate 5 (% inhibition) / Plate 5 (% conversion): plate 5 (Pfitzer), test compounds at fixed 20 μM; for Plate 5 (% conversion): mean conversion DMSO 32.88; for Inhibition at 20 µM [%]: AspH activity, fixed compound concentration 20 μM, initial LOPAC screen, 0.5%v/v DMSO

[1] = LOPAC compound at 20uM, plate 3, conversion of substrate peptide
[2] = LOPAC compound at 20uM, plate 2, conversion of substrate peptide
[3] = LOPAC compound at fixed 20 uM, plate 1, normalised to DMSO and 2,4-PDCA controls
[4] = LOPAC compound at fixed 20 uM, substrate conversion, plate 1
[5] = LOPAC Plate 4, compound at 20 uM, substrate conversion
[6] = LOPAC Plate 4, compound at 20 uM

O=C1CC[C@@]2(O)[C@H]3Cc4ccc(O)c5c4[C@@]2(CCN3CC2CC2)[C@H]1O5 [Naltrexone hydrochloride]
Plate 3 (% conversion): 34.83%

c1ccc2c(CC3=NCCN3)cccc2c1 [Naphazoline hydrochloride]
Plate 3 (% conversion) [1]: 38.59%

CNS(=O)(=O)CCc1ccc2[nH]cc(C3CCN(C)CC3)c2c1 [Naratriptan hydrochloride]
Plate 2 (% conversion) [2]: 39.49% | inhibition at 20 µM (LOPAC compound at 20uM, plate 2, normalised to DMSO and 2,4-PDCA controls, read-out: Plate 2 (% inhibition)): -10.6%

Cc1cccc(C)c1NC(=O)CN1CCCC1=O [Nefiracetam]
Plate 2 (% conversion): 34.89% | inhibition at 20 µM (read-out: Plate 2 (% inhibition)): 3.19%

CS(=O)(=O)O.Cc1c(O)cccc1C(=O)N[C@@H](CSc1ccccc1)[C@H](O)CN1C[C@H]2CCCC[C@H]2C[C@H]1C(=O)NC(C)(C)C.O [Nelfinavir mesylate hydrate]
Plate 2 (% conversion) [2]: 32.94% | Plate 2 (% inhibition) (LOPAC compound at 20uM, plate 2, normalised to DMSO and 2,4-PDCA controls): 9.02%

Cc1c(O)cccc1C(=O)N[C@@H](CSc1ccccc1)[C@H](O)CN1C[C@H]2CCCC[C@H]2C[C@H]1C(=O)NC(C)(C)C [Nelfinavir]
Plate 5 (% inhibition): 38.58% | Plate 5 (% conversion): 23.19%

CCOC(=O)C1=C(C)NC(C)=C(C(=O)OCC)C1c1c(F)c(F)c(F)c(F)c1F [Nemadipine-A]
Plate 3 (% conversion) [1]: 41.91%

CN(C)C(=O)Oc1cccc([N+](C)(C)C)c1 [Neostigmine bromide]
Plate 3 (% conversion): 40.63%

COC(=O)C1=C(C)NC(C)=C(C(=O)OCCN(C)Cc2ccccc2)C1c1cccc([N+](=O)[O-])c1 (centres unmarked) [Nicardipine hydrochloride]
Plate 3 (% conversion) [1]: 44.76%

COC(=O)C1=C(C)NC(C)=C(C(=O)OC)C1c1ccccc1[N+](=O)[O-] [Nifedipine]
Plate 3 (% conversion): 39.50%

O=C(O)c1cccnc1Nc1cccc(C(F)(F)F)c1 [Niflumic acid]
Plate 3 (% conversion) [1]: 32.98%

COCCOC(=O)C1=C(C)NC(C)=C(C(=O)OC(C)C)C1c1cccc([N+](=O)[O-])c1 (centres unmarked) [Nimodipine]
Plate 3 (% conversion) [1]: 43.84%

Cc1ncc(CNC(=O)N(CCCl)N=O)c(N)n1 [Nimustine hydrochloride]
Plate 3 (% conversion): 38.40%

CNCCC(Oc1ccccc1OC)c1ccccc1 (centres unmarked) [Nisoxetine hydrochloride]
Plate 3 (% conversion): 39.53%

CCOC(=O)C1=C(C)NC(C)=C(C(=O)OC)C1c1cccc([N+](=O)[O-])c1 (centres unmarked) [Nitrendipine]
Plate 3 (% conversion) [1]: 38.78%

COC(=O)Nc1nc2ccc(C(=O)c3cccs3)cc2[nH]1 [Nocodazole]
Plate 3 (% conversion): 40.67%

O=C1OC(=O)[C@H]2[C@@H]1[C@@H]1CC[C@H]2O1 [Norcantharidin]
Plate 3 (% conversion): 35.60%

CC(Cc1ccc(O)c(O)c1)C(C)Cc1ccc(O)c(O)c1 (centres unmarked) [Nordihydroguaiaretic acid, reference compound]
Inhibition at 20 µM [%]: 98.9%

COc1ccc2c(c1OC)C(=O)O[C@@H]2[C@H]1c2c(cc3c(c2OC)OCO3)CCN1C.Cl [Noscapine hydrchloride]
Plate 3 (% conversion) [1]: 38.14%

CC(CCc1ccccc1)NC(C)C(O)c1ccc(O)cc1 (centres unmarked) [Nylidrin hydrochloride]
Plate 3 (% conversion) [1]: 36.07%

Nc1nc(OCc2ccccc2)c2nc[nH]c2n1 [O6-benzylguanine]
Plate 1 (% inhibition) [3]: -1.55% | Plate 1 (% conversion) [4]: 36.39%

N[C@@H](COP(=O)(O)O)C(=O)O [O-Phospho-L-serine]
Plate 3 (% conversion) [1]: 35.30%

CCCCCCCCCCCCCCCCCCc1ccc(C(=O)/C=C/C(=O)O)cc1 [OBAA]
Plate 1 (% inhibition) [3]: -7.39% | Plate 1 (% conversion) [4]: 38.35%

CCCCCc1ccc(/C=C/C(=O)Nc2cc(Cl)ccc2C(=O)O)cc1 [ONO-RS-082]
Plate 3 (% conversion) [1]: 29.75%

CCCN1CCC[C@@H](c2cccc(S(C)(=O)=O)c2)C1 [OSU6162]
Plate 5 (% inhibition): 28.06% | Plate 5 (% conversion): 26.77%

CC1COc2c(N3CCN(C)CC3)c(F)cc3c(=O)c(C(=O)O)cn1c23 (centres unmarked) [Ofloxacin]
Plate 3 (% conversion) [1]: 41.94%

Cc1cc2c(s1)Nc1ccccc1N=C2N1CCN(C)CC1 [Olanzapine]
% conversion: 42.51% | inhibition at 20 µM: -17.7%

CCCCCCCC/C=C\CCCCCCCC(=O)O [Oleic Acid]
Plate 3 (% conversion): 10.92%

Cn1cnc2c(NCc3ccccc3)nc(NCCO)nc21 [Olomoucine]
Plate 3 (% conversion) [1]: 37.63%

Cc1[nH]c(=O)c(C#N)cc1-c1ccc2nccn2c1.Cl [Olprinone hydrochloride]
% conversion [5]: 31.06%

CCCCCCCC/C=C\CCCCCCCC(=O)NCc1ccc(O)c(OC)c1 [Olvanil]
Plate 3 (% conversion): 40.29%

OCCN1CCN(CCCN2c3ccccc3C=Cc3ccccc32)CC1 [Opipramol dihydrochloride]
Plate 1 (% inhibition) [3]: -12.26% | Plate 1 (% conversion) [4]: 39.99%

CN(CC[C@@H](Oc1ccc(C(F)(F)F)cc1)c1ccccc1)CC(=O)[O-].[Li+] [Org 24598 lithium salt]
Plate 1 (% conversion): 40.79% | Plate 1 (% inhibition): -14.64%

O=C(O)/C=C/C(=O)O.O=C(O)/C=C/C(=O)O.O=C(O)/C=C/C(=O)O.O=C1CCCN1CC#CCN1CCCC1.O=C1CCCN1CC#CCN1CCCC1 [Oxotremorine sesquifumarate salt]
Plate 3 (% conversion): 14.90%

CCN(CC)CC#CCOC(=O)C(O)(c1ccccc1)C1CCCCC1 (centres unmarked) [Oxybutynin Chloride]
Plate 3 (% conversion) [1]: 40.48%

Cc1cc(C(C)(C)C)c(O)c(C)c1CC1=NCCN1 [Oxymetazoline hydrochloride]
Plate 3 (% conversion) [1]: 41.41%

C=CCc1cccc(/C=N/NC(=O)CN2CCN(Cc3ccccc3)CC2)c1O [PAC-1, reference compound]
IC50 (50 nM His6-AspH315–758, 1.0 μM hFX-CP101–119, 3 μM 2OG, 2 μM Fe(II), 50 mM HEPES pH 7.5, 20 °C, mean ± SD, n = 2 (2,4-PDCA n = 10), read-out: IC50): 3.53 ± 0.71 µM | Inhibition at 20 µM [%]: 96.1% | % conversion [5]: 3.66%

Nc1ccc(CCN2CCN(c3cccc(C(F)(F)F)c3)CC2)cc1 [PAPP]
% conversion: 42.06% | % inhibition (20 µM): -16.38%

Cn1c(=O)c(-c2c(Cl)cccc2Cl)cc2cnc(Nc3ccc(N4CCOCC4)cc3)nc21 [PD173952]
% inhibition [6]: -8.20% | % conversion [5]: 39.27% | Plate 5 (% inhibition): 58.03% | Plate 5 (% conversion): 16.57%

O=C(NOCC1CC1)c1ccc(F)c(F)c1Nc1ccc(I)cc1Cl [PD184352]
Plate 5 (% inhibition): 28.96% | Plate 5 (% conversion): 26.46%

COc1cccc(-c2cc(=O)c3ccccc3o2)c1N [PD 98,059]
% conversion: 28.37%

Cc1cccc(C(=O)NCN2CCN(c3ccccc3C#N)CC2)c1.O=C(O)/C=C\C(=O)O [PD 168,077 maleate]
% inhibition [6]: 1.73% | % conversion [5]: 35.88%

CCOC(=O)[C@H](CC(C)C)NC(=O)[C@@H](NC(=O)[C@H](Cc1c[nH]c2ccccc12)NC(=O)[C@@H]1CCCN1C(=O)[C@H](CCCCN)NC[C@@H](N)CCCCN)C(C)(C)C [PD-149163] (H-[X1]PW[Tle]L-OEt)
Plate 5 (% inhibition): -16.72% | Plate 5 (% conversion): 42.01%
